pIC50: −log10 of the molar value.
How the values were obtained:
HCT116 cells = experiment: Inhibition of the cell proliferation of HCT116 cells (14C-thymidine incorporation); format: cell-based; conditions: Homo sapiens, HCT-116, 96 hours
Protocol: The antiproliferative activity of the products of the examples of Table 1 was determined by measuring the inhibition of the cell proliferation of HCT116 cells. The cells are seeded into a cell culture medium at a concentration of 10 000 cells per well, in 0.17 ml of medium, and 20 μl of test product, at various concentrations and 10 μl of thymidine [methyl-14C] (100 μCi/ml—specific activity 47.90 mCi/mmol; NEN Technologies reference NEC568 batch 3550-001) are added and the cells are then incubated at 37° C. and 5% CO2.
Medium used for the HCT116 cell culture: DMEM medium, 2 mM L-glutamine, 200 IU/ml penicillin, 200 μg/ml streptomycin and 10% (V/V) foetal calf serum (Life Technologies).
After 96 hours, the ^14C-thymidine incorporation is counted in a 1450 Microbeta Wallac Trilux liquid scintillation counter. The results R are expressed in cpm (counts per minute) and converted to percentage growth inhibition GI % by firstly subtracting the mean of the number of cpm of the wells without cells B and then dividing by the number of cpm of the wells of the nontreated cells C comprising 20 μl of product diluting medium containing 1% of ethanol (GI %=(R−B)×100/C %).
The IC50 values are calculated using equation 205 of the XLFit software (IDBS company, UK) by nonlinear regression analysis using the Marquardt algorithm (Donald W. MARQUARDT, J. Soc. industry. appl, vol 11, No. 2, June, 1963).

in vitro = conditions: human, Caco-2

| Compound | pIC50 (HCT116 cells) | Papp (in vitro) |
| --- | --- | --- |
| CO[C@@H](C(=O)NC1CCc2ccccc2N(Cc2cc(F)cc(F)c2)C1=O)[C@H](O)[C@@H](O)[C@H](O)/C=C/C(C)(C)C (stereo partly shown) [Example 1] | 7.85 | – |
| CO[C@@H](C(=O)NC1CCc2ccccc2N(C)C1=O)[C@H](O)[C@@H](O)[C@H](O)/C=C/C(C)(C)C (stereo partly shown) [Example 2] | 7.82 | – |
| CO[C@@H](C(=O)NC1CCc2cc(Br)ccc2NC1=O)[C@H](O)[C@@H](O)[C@H](O)/C=C/C(C)(C)C (stereo partly drawn) [Example 3, N-(7-bromo-2-oxo-2,3,4,5-tetrahydro-1H-1-benzazepin-3-yl)-(E)-(2R,3R,4S,5R)-3,4,5-trihydroxy-2-methoxy-8,8-dimethylnon-6-enamide] | 7.24 | – |
| CO[C@@H](C(=O)NC1CCc2cc(-c3ccccc3)ccc2NC1=O)[C@H](O)[C@@H](O)[C@H](O)/C=C/C(C)(C)C (stereo partly drawn) [Example 4, N-(7-phenyl-2-oxo-2,3,4,5-tetrahydro-1H-1-benzazepin-3-yl)-(E)-(2R,3R,4S,5R)-3,4,5-trihydroxy-2-methoxy-8,8-dimethylnon-6-enamide] | 7.12 | – |

Other lines, results leading:

| pIC50 (HCT116 cells) | Papp (in vitro) | Compound |
| --- | --- | --- |
| 7.49 | – | CO[C@@H](C(=O)N[C@H]1CCc2cc(Br)ccc2NC1=O)[C@H](O)[C@@H](O)[C@H](O)/C=C/C(C)(C)C [Example 3a] |
| 7.85 | 4.8 ×10⁻⁶ cm/s | CO[C@@H](C(=O)N[C@H]1CCc2cc(-c3ccccc3)ccc2NC1=O)[C@H](O)[C@@H](O)[C@H](O)/C=C/C(C)(C)C [Example 4a, (2R,3R,4S,5R,6E)-3,4,5-trihydroxy-2-methoxy-8,8-dimethyl-N-[(3S)-2-oxo-7-phenyl-2,3,4,5-tetrahydro-1H-1-benzazepin-3-yl]non-6-enamide] |

From US7994162B2, “2-alkoxy-3,4,5-trihydroxy-alkylamide-benzazepines, the preparation and use thereof, and compositions containing the same” (Sanofi-Aventis, priority 2006, dated 2011)
